# Data: patent publication US20100216767A1, “QUINAZOLINES FOR PDK1 INHIBITION” (priority 2006, published 2010)
# Target: T1, PDK1 kinase (Homo sapiens, UniProt O15530)
# T1 sequence (O15530 1-556): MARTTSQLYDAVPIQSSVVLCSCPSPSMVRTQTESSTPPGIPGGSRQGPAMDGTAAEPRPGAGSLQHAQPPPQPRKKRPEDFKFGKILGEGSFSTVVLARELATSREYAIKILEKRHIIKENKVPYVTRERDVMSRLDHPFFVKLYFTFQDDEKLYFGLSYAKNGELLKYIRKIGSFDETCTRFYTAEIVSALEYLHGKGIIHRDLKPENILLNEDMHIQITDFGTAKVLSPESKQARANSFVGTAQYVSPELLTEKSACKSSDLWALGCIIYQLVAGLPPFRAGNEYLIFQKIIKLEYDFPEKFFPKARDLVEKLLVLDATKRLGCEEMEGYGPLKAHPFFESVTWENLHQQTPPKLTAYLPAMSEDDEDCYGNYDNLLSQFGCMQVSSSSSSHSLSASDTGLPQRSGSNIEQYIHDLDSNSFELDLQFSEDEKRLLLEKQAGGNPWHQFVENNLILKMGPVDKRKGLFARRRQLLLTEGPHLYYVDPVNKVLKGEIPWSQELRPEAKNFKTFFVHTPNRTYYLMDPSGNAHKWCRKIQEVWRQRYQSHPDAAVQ
# Assay: PDK1 Kinase Alpha Screen Assay
# Format: biochemical
# Details: Table 1; 10 μM ATP, 50 nM PDK1-4 peptide
# Method: Reagents/Concentrations: The PDK1-4 peptide substrate, biotin-[…]-NH2, (SEQ ID NO: 1), was purchased from the Tufts University Core Facility. The final concentration of PDK1-4 peptide substrate was 50 nM. The ATP substrate (adenosine-[…] triphosphate) was purchased from Roche Diagnostics. The final concentration of ATP substrate was 10 μM. Phospho-(Ser/Thr) PKA substrate antibody was purchased from Cell Signaling Technology. The final concentration of antibody was 0.3 mg/mL. The Alpha Screen Protein A detection kit containing donor and acceptor beads was purchased from PerkinElmer Life Sciences. The final concentration of both donor and acceptor beads was 25 μg/mL. Alpha Screen was used for detection. The biotinylated-PDK1-4 peptide was phosphorylated by PDK1 kinase using the ATP substrate. The biotinylated-PDK1-4 peptide substrate was bound to the streptavidin coated donor bead. The antibody was bound to the protein A coated acceptor bead. The antibody bound to the phosphorylated form of the biotinylated PDK-1 peptide substrate, bringing the donor and acceptor beads into close proximity. Laser irradiation of the donor bead at 680 nm generated a flow of short-lived singlet oxygen molecules. When the donor and acceptor beads were in close proximity, the reactive oxygen generated by the irradiation of the donor beads initiated a luminescence/fluorescence cascade in the acceptor beads. This process led to a highly amplified signal with output in the 530-620 nm range. Assays were carried out in 50 mM Tris, pH=7.5, 10 mM MgCl2, 0.1% BSA, 0.01% Tween-20, 2 mM dithiolthreitol, 2.5% dimethyl sulfoxide. Reactions were stopped by adding 50 mM Tris, pH=7.5, 90 mM EDTA, 0.1% BSA, 0.01% Tween-20.
# Procedure: To 10 μl, of PDK1-4 peptide, […] of test compound in dimethyl sulfoxide was added. PDK1 kinase and ATP were mixed, and 10 μL of the PDK1 kinase/ATP mix was added to start the reaction. The reaction was allowed to proceed for 3-18 hours. The reactions were then stopped by adding 10 μL of the EDTA-containing stop buffer. Beads were mixed with antibody, and 25 μL of the bead/antibody mix was then added to the stopped reactions. Plates were incubated at room temperature overnight to allow for detection development before being read. The assay was run in a 384-well format plate.
row,Compound,IC50 [µM]
1,"C#Cc1ccc2nc(Nc3ccc(N4CCOCC4)cc3)ncc2c1 [Example 57, 6-ethynyl-N-(4-morpholinophenyl)-quinazolin-2-amine]",< 5
2,"C#Cc1ccc2nc(Nc3ccc(C(N)=O)cc3)ncc2c1 [Example 58, 4-(6-ethynylquinazolin-2-ylamino)benzamide]",< 5
3,"C#Cc1ccc2nc(Nc3cccc(C(N)=O)c3)ncc2c1 [Example 59, 3-(6-ethynylquinazolin-2-ylamino)benzamide]",< 5
4,"C#Cc1ccc2nc(Nc3cccc(S(N)(=O)=O)c3)ncc2c1 [Example 60, 3-(6-ethynylquinazolin-2-ylamino)benzene-sulfonamide]",< 5
5,"NS(=O)(=O)c1ccc(Nc2ncc3cc(-c4cc[nH]n4)ccc3n2)cc1 [Example 67, 4-(6-(1H-pyrazol-3-yl)-quinazolin-2-ylamino)-benzenesulfonamide]",< 5
6,"NC(=O)c1ccc(Nc2ncc3cc(-c4nccs4)ccc3n2)cc1 [Example 75, 4-(6-(thiazol-2-yl)-quinazolin-2-ylamino)-benzamide]",< 5
7,"C#Cc1ccc2nc(Nc3ccc(C(=O)N4CCOCC4)cc3)ncc2c1 [Example 81, (4-(6-ethynylquinazolin-2-ylamino)phenyl)-(morpholino)methanone]",< 5
8,"C#Cc1ccc2nc(Nc3ccc(N4CCOCC4)c(CN(C)C)c3)ncc2c1 [Example 82, N-(3-((dimethylamino)-methyl)-4-morpholino-phenyl)-6-ethynyl-quinazolin-2-amine]",< 5
9,"C#Cc1ccc2nc(Nc3cc(CN(C)C)cc(NC(C)=O)c3)ncc2c1 [Example 83, N-(3-((dimethylamino)-methyl)-5-(6-ethynyl-quinazolin-2-ylamino)-phenyl)acetamide]",< 5
10,"CC(=O)Nc1cc(CN(C)C)cc(Nc2ncc3cc(-c4nccs4)ccc3n2)c1 [Example 84, N-(3-((dimethylamino)-methyl)-5-(6-(thiazol-2-yl)quinazolin-2-ylamino)-phenyl)acetamide]",< 5
11,"C#Cc1cc2cnc(Nc3cc(CN(C)C)cc(NC(C)=O)c3)nc2cc1OC [Example 85, N-(3-((dimethylamino)methyl)-5-(6-ethynyl-7-methoxy-quinazolin-2-ylamino)-phenyl)acetamide]",< 5
12,"C#Cc1cc(OC)c2nc(Nc3cc(CN(C)C)cc(NC(C)=O)c3)ncc2c1 [Example 86, N-(3-((dimethylamino)-methyl)-5-(6-ethynyl-8-methoxyquinazolin-2-ylamino)phenyl)acetamide]",< 5
13,"COc1cc(-c2nccs2)cc2cnc(Nc3cc(CN(C)C)cc(NC(C)=O)c3)nc12 [Example 87, N-(3-((dimethylamino)-methyl)-5-(8-methoxy-6-(thiazol-2-yl)quinazolin-2-ylamino)phenyl)acetamide]",< 5
14,"C#Cc1cc(OC)c2nc(Nc3cc(CN(C)C)cc(NC(C)=O)c3)ncc2c1Cl [Example 88, N-(3-(5-chloro-6-ethynyl-8-methoxyquinazolin-2-ylamino)-5-((dimethyl-amino)methyl)phenyl)-acetamide]",< 5
15,"COc1cc(Br)c(Cl)c2cnc(Nc3ccc(C(=O)NC(C)C)cc3)nc12 [Example 89, 4-(6-bromo-5-chloro-8-methoxyquinazolin-2-ylamino)-N-isopropyl-benzamide]",< 5
16,"C#Cc1ccc2nc(Nc3cc(CN(C)C)cc(NC(C)=O)c3)ncc2c1Cl [Example 90, N-(3-(5-chloro-6-ethynyl-quinazolin-2-ylamino)-5-((dimethylamino)methyl)-phenyl)acetamide]",< 5
17,"CC(=O)Nc1cc(CN(C)C)cc(Nc2ncc3c(Cl)c(-c4nccs4)ccc3n2)c1 [Example 91, N-(3-(5-chloro-6-(thiazol-2-yl)quinazolin-2-ylamino)-5-((dimethyl-amino)methyl)phenyl)-acetamide]",< 5

# Other lines, results leading:
row,IC50 [µM],Compound
1,< 5,"C#Cc1ccc2nc(Nc3cccc(NS(C)(=O)=O)c3)ncc2c1 [Example 61, N-(3-(6-ethynylquinazolin-2-ylamino)phenyl)-methane-sulfonamide]"
2,< 5,"COc1cc(-c2cnn(C)c2)cc2cnc(Nc3ccc(S(N)(=O)=O)cc3)nc12 [Example 62, 4-(8-methoxy-6-(1-methyl-1H-pyrazol-4-yl)-quinazolin-2-ylamino)-benzenesulfonamide]"
3,< 5,"COc1cc(-c2nccs2)cc2cnc(Nc3ccc(S(N)(=O)=O)cc3)nc12 [Example 63, 4-(8-methoxy-6-(thiazol-2-yl)quinazolin-2-ylamino)-benzenesulfonamide]"
4,< 5,"COc1cc(C#CC(C)(C)O)cc2cnc(Nc3ccc(S(N)(=O)=O)cc3)nc12 [Example 65, 4-(6-(3-hydroxy-3-methylbut-1-ynyl)-8-methoxyquinazolin-2-ylamino)benzenesulfonamide]"
5,10 to 25,"COc1cc(C#CC(C)(C)N)cc2cnc(Nc3ccc(S(N)(=O)=O)cc3)nc12 [Example 66, 4-(6-(3-amino-3-methylbut-1-ynyl)-8-methoxyquinazolin-2-ylamino)benzenesulfonamide]"
6,< 5,"CC(=O)Nc1ccc2nc(Nc3ccc(S(N)(=O)=O)cc3)ncc2c1 [Example 68, N-(2-(4-Sulfamoylphenylamino)quinazolin-6-yl)acetamide]"
7,< 5,"C#Cc1cc2cnc(Nc3ccc(N4CCOCC4)cc3)nc2cc1OC [Example 69, 6-ethynyl-7-methoxy-N-(4-morpholinophenyl)-quinazolin-2-amine]"
8,< 5,"C#Cc1cc(OC)c2nc(Nc3ccc(N4CCOCC4)cc3)ncc2c1 [Example 70, 6-ethynyl-8-methoxy-N-(4-morpholinophenyl)-quinazolin-2-amine]"
9,< 5,"C#Cc1ccc2nc(Nc3cccc(CN(C)C)c3)ncc2c1 [Example 71, N-(3-((dimethylamino)-methyl)phenyl)-6-ethynylquinazolin-2-amine]"
10,< 5,"C#Cc1ccc2nc(Nc3ccc(C(=O)NC(C)C)cc3)ncc2c1 [Example 72, 4-(6-ethynylquinazolin-2-ylamino)-N-isopropyl-benzamide]"
11,< 5,"C#Cc1cc2cnc(Nc3ccc(C(=O)NC(C)C)cc3)nc2cc1OC [Example 73, 4-(6-ethynyl-7-methoxy-quinazolin-2-ylamino)-N-isopropylbenzamide]"
12,< 5,"C#Cc1cc2cnc(Nc3ccc(C(=O)N4CCOCC4)cc3)nc2cc1OC [Example 74, (4-(6-ethynyl-7-methoxy-quinazolin-2-ylamino)-phenyl)(morpholino)-methanone]"
13,< 5,"N#Cc1ccc2nc(Nc3ccc(N4CCOCC4)cc3)ncc2c1 [Example 76, 2-(4-morpholinophenyl-amino)quinazoline-6-carbonitrile]"
14,< 5,"Brc1ccc2nc(Nc3ccc(N4CCOCC4)cc3)ncc2c1 [Example 77, 6-bromo-N-(4-morpholino-phenyl)quinazolin-2-amine]"
15,< 5,"N#Cc1ccc2nc(Nc3ccc(C(N)=O)cc3)ncc2c1 [Example 78, 4-(6-cyanoquinazolin-2-ylamino)benzamide]"
16,< 5,"NC(=O)c1ccc(Nc2ncc3cc(Br)ccc3n2)cc1 [Example 79, 4-(6-bromoquinazolin-2-ylamino)benzamide]"
17,< 5,"C#Cc1cc(OC)c2nc(Nc3cccc(N4CCOCC4)c3)ncc2c1 [Example 80, 6-ethynyl-8-methoxy-N-(3-morpholinophenyl)-quinazolin-2-amine]"
